± gives the expanded uncertainty stated by the source.

The values below come from the NIST ThermoML archive (doi:10.1021/je9000872).

The nature of this series: molar enthalpy of vaporization or sublimation. To be noted: 298.15 K, Calvet microcalorimetry.

As to `Oc1cccc(F)c1` [3-fluorophenol], the molar enthalpy (Liquid) was found to be 60.1 ± 1.8 kJ/mol.

On to `Oc1ccccc1F` [2-fluorophenol], for which the molar enthalpy (Liquid) came out at 52.3 ± 1.6 kJ/mol.

For `Oc1ccc(F)cc1` [4-fluorophenol], where the note is “Crystal”, the molar enthalpy was 73.9 ± 2.8 kJ/mol.
